Measured values as given in patent US20080221114A1, “2-(Cyclic Aminocarbonyl) Indoline Derivative and Medicinal Composition Containing the Same” (priority 2005, published 2008).

Molecular target: T1, mitochondrial benzodiazepine receptor (MBR) (Rattus norvegicus, UniProt P16257)
T1 construct: from tissue; host or cells: kidney of male Wistar rats (crude membrane preparation)
Assay: Binding assay of mitochondrial benzodiazepine receptor (MBR), [3H]4'-chlorodiazepam (Ro5-4864), rat kidney membrane-preparation
Details: rat kidney membranes, [3H]4'-chlorodiazepam 0.5 nM, 0° C. for 150 minutes
Procedure: The binding assay of central-type benzodiazepine receptor (CBR) and the preparation of receptor membrane-preparation were carried out according to the partially modified method of Braestrup, C. et al. [see; Br. J. Psychiatry, 133, 249-260 (1978)] with a minor modification; the binding assay of mitochondrial benzodiazepine receptor (MBR) and the preparation of receptor membrane-preparation were carried out according to the method of Schoemaker, H [see; J. Pharmacol. Exp. Ther., 225, 61-69 (1983)] with a minor modification.
CBR and MBR membrane-preparations were prepared from forebrain (CBR) and kidney (MBR) of male Wistar strain rats according to the following procedure, respectively.
To the forebrain of rat, 20 volumes of ice-cold 0.32 M sucrose solution to wet-weight of the tissue (1:20, wet-weight/vol) was added and homogenized, and then the homogenate was centrifuged at 900×g for 10 minutes. The supernatant was centrifuged at 11,500×g for 20 minutes, a buffer I for the binding assay (50 mM Tris-hydrochloric acid buffer, pH 7.5) was added to the resultant precipitate, and the mixture was homogenized, and then it was centrifuged at 30,000×g for 10 minutes. The resulting precipitate was washed 3 times according to the same operation, suspended in the buffer I (1 g of wet-weight of tissue/10 ml) and used as a CBR membrane-preparation for the binding assay. The CBR membrane-preparation was stored at −80° C. until use, and on the day of the assay, it was thawed and suspended in the buffer for use. On the other hand, kidney of rat was homogenized in 20 volumes of ice-cold buffer II for the binding assay to wet-weight of the tissue (1:20, wet-weight/vol) (50 mM sodium phosphate-potassium phosphate buffer solution containing 100 mM sodium chloride, pH 7.4), and then filtrated through 4 layers of gauze, and the filtrate was centrifuged at 40,000×g for 20 minutes. The resulting precipitate was suspended in the buffer II (1 g of wet-weight of tissue/50 ml) and used as a MBR membrane-preparation for the binding assay.
As a labeled ligand and a non-labeled ligand, [^3H]flunitrazepam (final concentration: 1 nM) and diazepam (final concentration: 20 μM) were used respectively, for the CBR binding assay, and [^3H]4′-chlorodiazepam (Ro5-4864, chemical name: 7-chloro-1,3-dihydro-1-methyl-5-(4-chloro-phenyl)-2H-1,4-[…]) (final concentration: 0.5 nM) and diazepam (final concentration: 50 μM) were used respectively, for the MBR binding assay. The binding assay of CBR was carried out by incubating at 0° C. for 30 minutes, while that of MBR was at 0° C. for 150 minutes.
The receptor binding assay was carried out in the following procedure. The test compound which the concentration was known, a tritium labeled ligand, a receptor membrane-preparation and the buffer I or II for the binding assay were added to a 96-well microplate in the total volume was 0.2 ml, and when the receptor membrane-preparation was added, the reaction started. After the incubation, the labeled ligand binding to the receptor was filtrated through a filter plate (UNI FILTER-96GF/B, PerkinElmer, the U.S.) using a cell harvester (PerkinElmer, the U.S.) to stop the reaction. The filter was immediately washed 6 times with 0.3 ml of the ice-cold buffer [50 mM Tris-hydrochloric acid buffer (pH 7.7)]. After 30 μl of liquid scintillation cocktail (MICROSCINTI 20, PerkinElmer, the U.S.) was added to each well on the dried filter plate, the radioactivity was measured with a TopCount. The specific binding amount was obtained by subtracting the non-specific binding amount which was simultaneously measured in the presence of non-labeled ligand from the total binding amount. The concentration that the test compound could decrease the specific binding amount of the labeled ligand to 50% of the amount (IC50 value) was analyzed using nonlinear least-squares method.

SMILES	IC50
C[C@H]1CCCN(C(=O)C2Cc3c(F)cccc3N2c2ccc(=O)n(C)n2)C1 (single isomer, unassigned) [Example 155b]	8.69 nM
C[C@@H]1C[C@H](C)CN(C(=O)[C@@H]2Cc3ccccc3N2c2ncccc2N)C1 [Example 55, (S)-1-(3-aminopyridin-2-yl)-2-[(cis-3,5-dimethylpiperidin-1-yl)carbonyl]indoline]	55.1 nM
CCc1ccc2c(c1)C[C@@H](C(=O)N1CCC[C@H](C)C1)N2c1cccnn1 [Example 105, (S)-5-ethyl-2-[(S)-3-methylpiperidin-1-yl]-carbonyl-1-(3-pyridazinyl)indoline]	80.7 nM
Cn1nc(N2c3ccccc3CC2C(=O)N2CCCC(C(F)(F)F)C2)ccc1=O (stereo not shown) [Example 108]	17.7 nM
Cn1nc(N2c3ccccc3C[C@H]2C(=O)N2CCCCCCC2)ccc1=O [Example 119, (S)-1-(1-methyl-6-oxo-1,6-dihydropyridazin-3-yl)-2-[(1-perhydroazocinyl)carbonyl]indoline]	3.98 nM
C[C@H]1CCCN(C(=O)[C@@H]2Cc3ccccc3N2c2ccc(=O)n(CC3CCC3)n2)C1 [Example 125]	1.33 nM
C[C@H]1CCCN(C(=O)[C@@H]2Cc3ccccc3N2c2ccc(=S)n(C)n2)C1 [Example 139, (S)-2-[[(S)-3-methylpiperidin-1-yl]carbonyl]-1-(1-methyl-6-thioxo-1,6-dihydropyridazin-3-yl)indoline]	7.15 nM
CC1c2ccccc2N(c2ccc(Cl)nn2)C1C(=O)N1CCC[C@H](C)C1 (stereo partly drawn) [Example 140, 1-(6-chloropyridazin-3-yl)-3-methyl-2-[[(S)-3-methylpiperidin-1-yl]carbonyl]indoline]	3.84 nM
CC1c2ccccc2N(c2ccc(=O)n(C)n2)C1C(=O)N1CCC[C@H](C)C1 (stereo partly drawn) [Example 141, 3-methyl-1-(1-methyl-6-oxo-1,6-dihydropyridazin-3-yl)-2-[[(S)-3-methylpiperidin-1-yl]carbonyl]indoline]	12.3 nM
CCCC1CCCN(C(=O)[C@@H]2Cc3ccccc3N2c2ccc(=O)n(C)n2)C1 (stereo partly drawn) [Example 147, (S)-1-(1-methyl-6-oxo-1,6-dihydropyridazin-3-yl)-2-[(3-propylpiperidin-1-yl)carbonyl]indoline]	3.8 nM
CC1CCN(C(=O)[C@@H]2Cc3ccccc3N2c2ccc(=O)n(C)n2)C1 (stereo partly drawn) [Example 148, (S)-1-(1-methyl-6-oxo-1,6-dihydropyridazin-3-yl)-2-[(3-methylpyrrolidin-1-yl)carbonyl]indoline]	44.7 nM
CCC1CCN(C(=O)[C@@H]2Cc3ccccc3N2c2ccc(=O)n(C)n2)C1 (stereo partly drawn) [Example 149, (S)-2-[(3-ethylpyrrolidin-1-yl)carbonyl]-1-(1-methyl-6-oxo-1,6-dihydropyridazin-3-yl)indoline]	5.35 nM
Cn1nc(N2c3ccccc3C[C@H]2C(=O)N2CCCC(C)(C)C2)ccc1=O [Example 152, (S)-2-[(3,3-dimethylpiperidin-1-yl)carbonyl]-1-(1-methyl-6-oxo-1,6-dihydropyridazin-3-yl)indoline]	7.29 nM
C[C@H]1CCCN(C(=O)[C@@H]2Cc3ccccc3N2c2nccs2)C1 [Example 153, (S)-2-[(S)-3-methylpiperidin-1-yl]carbonyl-1-(1,3-thiazol-2-yl)indoline]	1.13 nM

Next, values leading:

IC50	SMILES
67 nM	C[C@H]1CCCN(C(=O)C2Cc3cc(O)ccc3N2c2ccc(=O)n(C)n2)C1 (stereo partly drawn) [Example 136, 5-hydroxy-1-(1-methyl-6-oxo-1,6-dihydropyridazin-3-yl)-2-[[(S)-3-methylpiperidin-1-yl]carbonyl]indoline]
61.5 nM	CC1CCCN(C(=O)[C@H]2[C@@H](O)c3ccccc3N2c2ccc(=O)n(C)n2)C1 (relative stereo) [Example 159, cis-3-hydroxy-1-(1-methyl-6-oxo-1,6-dihydropyridazin-3-yl)-2-[(3-methylpiperidin-1-yl)carbonyl]-indoline]
31 nM	CC1CCCCN1C(=O)[C@@H]1Cc2ccccc2N1c1ccc(=O)n(C)n1 (stereo partly drawn) [Example 145, (S)-1-(1-methyl-6-oxo-1,6-dihydropyridazin-3-yl)-2-[(2-methylpiperidin-1-yl)carbonyl]indoline]
28.5 nM	Cn1nc(N2c3cc(F)ccc3CC2C(=O)N2CCCCCC2)ccc1=O (stereo not shown) [Example 158, 6-fluoro-1-(1-methyl-6-oxo-1,6-dihydropyridazin-3-yl)-2-[(1-perhydroazepinyl)carbonyl]indoline]
8.69 nM	C[C@H]1CCCN(C(=O)[C@@H]2Cc3ccccc3N2c2ccc(=O)[nH]n2)C1 [Example 143, (S)-2-[[(S)-3-methylpiperidin-1-yl]carbonyl]-1-(6-oxo-1,6-dihydropyridazin-3-yl)indoline]
5.36 nM	CC1CCCCN(C(=O)[C@@H]2Cc3ccccc3N2c2ccc(=O)n(C)n2)C1 (stereo partly drawn) [Example 150, (S)-1-(1-methyl-6-oxo-1,6-dihydropyridazin-3-yl)-2-[(3-methylperhydroazepin-1-yl)carbonyl]indoline]
5 nM	C[C@H]1CCCN(C(=O)[C@@H]2Cc3ccccc3N2c2ccc3nncn3n2)C1 [Example 154, (S)-2-[[(S)-3-methylpiperidin-1-yl]carbonyl]-1-(1,2,4-triazolo[4,3-b]pyridazin-6-yl)indoline]
4.91 nM	CCC1CCCN(C(=O)[C@@H]2Cc3ccccc3N2c2ccc(=O)n(C)n2)C1 (stereo partly drawn) [Example 146, (S)-2-[(3-ethylpiperidin-1-yl)carbonyl]-1-(1-methyl-6-oxo-1,6-dihydropyridazin-3-yl)indoline]
4.36 nM	C[C@H]1CCCN(C(=O)C2Cc3c(F)cccc3N2c2ccc(=O)n(C)n2)C1 (single isomer, unassigned) [Example 155a]
4.22 nM	Cn1nc(N2c3ccccc3C[C@H]2C(=O)N2CCCCCC2)ccc1=O [Example 118, (S)-1-(1-methyl-6-oxo-1,6-dihydropyridazin-3-yl)-2-[(1-perhydroazepinyl)carbonyl]indoline]
3.59 nM	CCC1CCCCN(C(=O)[C@@H]2Cc3ccccc3N2c2ccc(=O)n(C)n2)C1 (stereo partly drawn) [Example 151, (S)-2-[(3-ethylperhydroazepin-1-yl)carbonyl]-1-(1-methyl-6-oxo-1,6-dihydropyridazin-3-yl)indoline]
3.04 nM	CCC(C)n1nc(N2c3ccccc3CC2C(=O)N2CCCC(C)C2)ccc1=O (stereo not shown) [Example 76]
2.76 nM	Cn1nc(N2c3cccc(F)c3CC2C(=O)N2CCCCCC2)ccc1=O (stereo not shown) [Example 156, 4-fluoro-1-(1-methyl-6-oxo-1,6-dihydropyridazin-3-yl)-2-[(1-perhydroazepinyl)carbonyl]indoline]
2.69 nM	C[C@H]1CCCN(C(=O)[C@@H]2Cc3ccccc3N2c2ccc(=O)n(C3CCCC3)n2)C1 [Example 126]
2.39 nM	C[C@H]1CCCN(C(=O)[C@@H]2Cc3ccccc3N2c2ccc(=O)n(CC(=O)c3ccccc3)n2)C1 [Example 124]
1.99 nM	C[C@@H]1C[C@H](C)CN(C(=O)[C@@H]2Cc3ccccc3N2c2cccnc2)C1 [Example 33]

Tested on: not given
Assay: not given
Details: not given

melting point	SMILES
198 to 199 °C	Cn1nc(N2c3ccccc3C[C@H]2C(=O)N2CCCCCC2)ccc1=O (hydrate or solvate) [Example 118, (S)-1-(1-methyl-6-oxo-1,6-dihydropyridazin-3-yl)-2-[(1-perhydroazepinyl)carbonyl]indoline]
